Like-named read-outs stand apart in the source and are kept apart here.
Columns and labels:
[1] = target: T1, human 5-HT6 receptor (Homo sapiens, UniProt P50406); test: GPCR radioligand binding assay, [3H]-LSD displacement, HEK293 membranes; conditions: for 5-HT6 % Inhibition by plate position: 10 µM; for %inh 5-HT6 average: average of exp_1 and exp_2; for %inh 5-HT6 corrected*: average, values below 0 and above 100% were set as 0 and 100; for %inh 5-HT6 exp_1: replicate exp_1; for %inh 5-HT6 exp_2: replicate exp_2
T1 construct: expressed in transfected cells

[2] = target: T2, bovine factor Xa (Bos taurus, UniProt P00743); test: Protease inhibitory assay, chromogenic substrate S-2222; type: biochemical
T2 construct: bovine factor Xa, Chromogenix, 2 nkat/mL; purchased Chromogenix

[3] = target: T3, human 5-HT1A receptor (Homo sapiens, UniProt P08908); test: GPCR radioligand binding assay, [3H]-8-OH-DPAT displacement, HEK293 membranes; conditions: for 5-HT1A % Inhibition by plate position: 10 µM; for %inh 5-HT1A average: average of exp_1 and exp_2; for %inh 5-HT1A exp_1: replicate exp_1; for %inh 5-HT1A exp_2: replicate exp_2; for %inh 5-HT1A corrected*: average, values below 0 and above 100% were set as 0 and 100
T3 construct: expressed in transfected cells
T3 sequence (P08908 1-422): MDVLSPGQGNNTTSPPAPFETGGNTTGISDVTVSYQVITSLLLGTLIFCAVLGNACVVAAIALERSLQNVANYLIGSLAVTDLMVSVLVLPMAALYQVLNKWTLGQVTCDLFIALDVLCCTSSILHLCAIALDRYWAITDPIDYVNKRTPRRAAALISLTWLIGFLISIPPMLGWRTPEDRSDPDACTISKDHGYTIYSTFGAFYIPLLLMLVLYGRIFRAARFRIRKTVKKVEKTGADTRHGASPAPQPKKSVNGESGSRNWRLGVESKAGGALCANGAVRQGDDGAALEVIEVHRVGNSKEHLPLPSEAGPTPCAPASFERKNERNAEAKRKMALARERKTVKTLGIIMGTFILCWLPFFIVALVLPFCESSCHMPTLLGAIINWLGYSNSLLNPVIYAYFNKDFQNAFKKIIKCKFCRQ

[4] = target: T4, human 5-HT7b receptor (Homo sapiens, UniProt P34969); test: GPCR radioligand binding assay, [3H]-5-CT displacement, HEK293 membranes; conditions: for 5-HT7 % Inhibition by plate position: 10 µM; for %inh 5-HT7 exp_1: replicate exp_1; for %inh 5-HT7 exp_2: replicate exp_2; for %inh 5-HT7 average: average of exp_1 and exp_2
T4 construct: expressed in transfected cells
T4 sequence (P34969 1-432): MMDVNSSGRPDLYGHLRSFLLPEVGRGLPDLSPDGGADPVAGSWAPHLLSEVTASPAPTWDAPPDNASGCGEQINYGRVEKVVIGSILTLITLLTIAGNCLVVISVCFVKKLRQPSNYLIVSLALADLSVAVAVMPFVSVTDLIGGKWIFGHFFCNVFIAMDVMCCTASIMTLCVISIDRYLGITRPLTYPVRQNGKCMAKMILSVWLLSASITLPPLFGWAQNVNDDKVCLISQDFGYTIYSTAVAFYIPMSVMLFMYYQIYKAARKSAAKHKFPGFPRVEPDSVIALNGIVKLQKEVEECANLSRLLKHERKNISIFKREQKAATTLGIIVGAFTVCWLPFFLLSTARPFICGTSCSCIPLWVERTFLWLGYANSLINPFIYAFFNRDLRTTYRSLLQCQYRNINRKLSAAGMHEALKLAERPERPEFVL

T1 sequence (P50406 whole entry): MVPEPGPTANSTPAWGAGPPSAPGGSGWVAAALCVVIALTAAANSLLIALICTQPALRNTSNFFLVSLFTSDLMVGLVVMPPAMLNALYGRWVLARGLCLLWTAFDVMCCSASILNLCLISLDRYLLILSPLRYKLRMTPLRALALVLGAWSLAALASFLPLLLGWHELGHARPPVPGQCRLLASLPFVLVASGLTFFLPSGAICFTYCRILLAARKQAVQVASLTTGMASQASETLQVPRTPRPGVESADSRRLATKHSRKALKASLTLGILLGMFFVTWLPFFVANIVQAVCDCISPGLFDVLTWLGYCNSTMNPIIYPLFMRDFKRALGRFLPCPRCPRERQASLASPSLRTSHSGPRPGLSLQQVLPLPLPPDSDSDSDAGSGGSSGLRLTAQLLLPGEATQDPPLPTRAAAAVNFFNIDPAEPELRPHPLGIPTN
T2 sequence (P00743 234-492 limits assumed): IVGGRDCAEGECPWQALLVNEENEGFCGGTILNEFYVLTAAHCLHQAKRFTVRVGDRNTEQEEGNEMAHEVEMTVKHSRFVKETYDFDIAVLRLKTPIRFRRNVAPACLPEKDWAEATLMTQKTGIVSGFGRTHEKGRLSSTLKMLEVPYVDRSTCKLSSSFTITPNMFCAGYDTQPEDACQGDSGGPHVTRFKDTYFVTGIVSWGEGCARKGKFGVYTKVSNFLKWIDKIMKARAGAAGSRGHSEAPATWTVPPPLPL
T2 sequence (P00743 41-180 partner limits assumed): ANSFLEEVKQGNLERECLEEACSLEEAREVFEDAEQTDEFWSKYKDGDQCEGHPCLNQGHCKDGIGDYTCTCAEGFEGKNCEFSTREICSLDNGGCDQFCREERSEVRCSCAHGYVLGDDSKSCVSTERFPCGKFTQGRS

Compound	5-HT6 % Inhibition by plate position [1] [%]	%inh 5-HT6 average [1] [%]	%inh 5-HT6 corrected* [1] [%]	%inh 5-HT6 exp_1 [1] [%]	%inh 5-HT6 exp_2 [1] [%]	5-HT1A % Inhibition by plate position [3] [%]	%inh 5-HT1A average [3] [%]	%inh 5-HT1A exp_1 [3] [%]	%inh 5-HT1A exp_2 [3] [%]	5-HT7 % Inhibition by plate position [4] [%]	%inh 5-HT7 exp_1 [4] [%]	%inh 5-HT7 exp_2 [4] [%]	%inh 5-HT1A corrected* [3] [%]	other results
COc1ccccc1CC1CCNCC1 [B12]														inhibition at 10 µM ([1]; read-out: 5-HT6 % Inhibition by plate position): 76%; inhibition at 10 µM ([1]; read-out: %inh 5-HT6 average): 76%; inhibition at 10 µM ([1]; read-out: %inh 5-HT6 corrected*): 76%; inhibition at 10 µM ([1]; read-out: %inh 5-HT6 exp_1): 84%; inhibition at 10 µM ([1]; read-out: %inh 5-HT6 exp_2): 68%; Ki [2]: 401 µM; inhibition at 10 µM ([3]; read-out: 5-HT1A % Inhibition by plate position): 50%; inhibition at 10 µM ([3]; read-out: %inh 5-HT1A average): 50%; inhibition at 10 µM ([3]; read-out: %inh 5-HT1A corrected*): 50%; inhibition at 10 µM ([3]; read-out: %inh 5-HT1A exp_1): 52%; inhibition at 10 µM ([3]; read-out: %inh 5-HT1A exp_2): 48%; inhibition at 10 µM ([4]; read-out: 5-HT7 % Inhibition by plate position): 54%; inhibition at 10 µM ([4]; read-out: %inh 5-HT7 average): 54%; inhibition at 10 µM ([4]; read-out: %inh 5-HT7 corrected*): 54%; inhibition at 10 µM ([4]; read-out: %inh 5-HT7 exp_1): 45%; inhibition at 10 µM ([4]; read-out: %inh 5-HT7 exp_2): 63%
Cc1cc(N)no1 [B11]	37	37	37	40	34	0	-21	-18	-24	1.49	-8	11		
CS(=O)(=O)c1ccc(N2CCNCC2)cc1 [B1]	28	28	28	28	28		4.22	8.43	0	35	29	40	4.22	
Cc1cc(-c2ccccc2)n[nH]1 [A8]	48	48	48	44	52		9	9	9	34	37	32	9	
O=C1NC2(CCCC2)Nc2ccccc21 [C9]	44	44	44	46	41	0	-0.0168	4.43	-4.46	5	-2.47	13		
N#CCCN1CCc2ccccc21 [F4]	23	23	23	26	20	0	-7	-1.29	-12	3	1.81	4.42		
Cn1nc(C(F)(F)F)cc1O [H6]	0	-24	0	-16	-31		21	21	21	9	4	14	21	
CC(=O)c1ccc2c(c1)CCCN2 [C7]	9	9	9	10	8		2.29	-2	6.6	0	-14	-18	2.29	%inh 5-HT7 average [4]: -16%
CN1CC(=O)NC1=O [B10]	35	35	35	31	40	0	-4.34	4	-13	0	-15	0		%inh 5-HT7 average [4]: -7.6%
CCn1cnc2ccccc21 [D4]	23	23	23	23	23	0	-8	-16	0	0	1.55	-12		%inh 5-HT7 average [4]: -5.34%
COC(=O)c1c(C)nc(C2CC2)[nH]c1=O [F1]	41	41	41	38	44		16	17	15	23	23	22	16	
O=c1ccc2c([nH]1)CCCC2 [C5]	46	46	46	39	53	0	-1.35	-18	15	1	0.605	1.43		
O=C1CNCCN1c1ccccc1 [B2]	47	47	47	50	44		4.62	9	0	0	14	-19	4.62	%inh 5-HT7 average [4]: -2.46%
NCC1(c2ccccc2)CCOCC1 [F10]	23	23	23	20	25		11	10	12	6	-0.903	13	11	
COc1ccc(C2=CCNCC2)cc1 [G1]	49	49	49	49	49		17	14	20	19	17	20	17	
Cc1cnc(C(F)(F)F)cn1 [B9]	32	32	32	32	33		1.1	-7	9	11	14	7	1.1	
c1ccc2c(N3CCNCC3)ccnc2c1 [C4]	72	72	72	71	72		81	78	83	16	17	15	81	
N[C@H]1c2ccccc2C[C@H]1CO [B5]	25	25	25	25	25	0	-0.612	-19	18	6	14	-1		

— article PMC8159961, “Exploring protein hotspots by optimized fragment pharmacophores” (Nature Communications, 2021)
